According to patent US7189691B2, “Methods and compositions for treating leukemia” (The Administrators of the Tulane Educational Fund, priority 2004, dated 2007):
Entries after “also recorded” stand apart in the source; their conditions may differ.

Tests used:
[1] = test system: RS4;11 leukemia cell line; test: MTT viability assay and growth curve (Trypan Blue exclusion); assay type: cell-based; details: 100 μg/ml, 72 h
Description: (§1) All cell lines were maintained in RPMI 1640+10% FCS. 100 μl aliquots of cell suspension (5×10^5 cells/ml) were cultured in flat-bottomed 96 well plates in the presence of different concentrations of peptides. After 72 h incubation at 37° C. in humidified air containing 5% CO2, viable cell number was determined by MTT assay as follows: 10 μl of 3-[4,5-dimethylthiazol-2-yl]-2,5-diphenyl tetrazolium bromide (MTT) (5 mg/ml concentration) (Sigma) was added to each well and incubated further for 6 h. Formazan crystals that are formed during incubation were dissolved in 100 μl of acidified isopropanol. The optical density at 550 nm (which is linearly related to the number of viable cells) was measured using a plate spectrophotometer. Growth characteristics of the leukemia cell lines were also determined for cells by Trypan Blue exclusion.

[2] = test system: hematopoietic progenitor cells (peripheral blood stem cells); test: Methylcellulose clonogenic assay; assay type: cell-based, human; details: 100 μg/ml, 72 h incubation; FIG. 4A
Description: PFWT is toxic to several leukemia cell lines raising the possibility that normal hematopoietic cells are also sensitive to the peptide. To verify whether PFWT has any effect on hematopoietic stem cells, standard methylcellulose-based assays were employed to enumerate the colony-forming potential of human peripheral blood and bone marrow stem cells.
Cryopreserved bone marrow and peripheral blood hematopoietic progenitor cells from healthy donors were thawed and diluted with M199 media (Invitrogen) to give a final DMSO concentration of 0.1%. Cells were incubated at room temperature for 2 h for equilibration. Nucleated cells at a concentration of 5×10^5 cells/ml were then incubated with the peptides PFWT or PFmut or DMSO control vehicle for 48 or 72 h. After the incubation period, 400 μl of the cell suspensions were suspended in 3.6 ml MethoCult GF H4434 methylcellulose media containing cytokines (erythropoietin, G-CSF, GM-CSF, stem cell factor, IL-3 and IL-6) (Stem Cell Technologies) and transferred to 25 mm plates with grids. The cells were plated in triplicate and incubated for 2 weeks at 37° C. with 5% CO2 in a humidified incubator. After 2 weeks, the number of colonies (>50 cells) per plate was counted under an inverted light microscope as a measure of progenitor cell viability.

[3] = test system: KP-L-RY leukemia cell line; test: MTT viability assay; assay type: cell-based; details: 72 h, differing concentrations
Description: as §1

[4] = test system: B1 leukemia cells; test: CaspACE FITC-VAD-FMK caspase assay; assay type: cell-based; details: 50 μg peptide, 24 h / overnight
Description: To examine an additional marker of apoptosis, apoptosis assays utilizing the FITC-labeled VAD-FMK caspase substrate, CaspACE FITC-VAD-FMK (Promega) were performed according to the manufacturer's instructions. Caspase activation in individual cells was monitored by binding of the caspase substrate, followed by flow cytometry analysis. Briefly, B1 leukemia cells were suspended in RPMI 1640+10% FCS at a concentration of 5×10^5 cells/ml and treated with 50 μg PFWT, PFmut or an equal volume of DMSO. Following an overnight incubation at 37° C., the fluorescent caspase substrate CaspACE FITC-VAD-FMK marker was added to a final concentration of 10 μM and incubated for 20 minutes at 37° C. under light protective conditions. The cells were pelletted, washed, and resuspended in PBS. Cells were then analyzed by flow cytometry using a Becton Dickinson FACS Vantage flow cytometer. A 488 nm wavelength argon-ion laser beam was used for excitation, and the emission was measured using a 530 nm filter.

[5] = test system: B1 cells; test: Annexin-V/PI binding assay (flow cytometry); assay type: cell-based; details: treated for 24 h
Description: To test the possibility that growth inhibition of t(4;11) leukemia cells exposed to PFWT is the result of apoptotic cell death, annexin-V labeling of the cell membrane of the leukemic cells examined in Example 5 was used to assess apoptosis as follows (Koopman, G., et al., Blood 1994 84: 1415–1420.). Annexin V binding assays were carried out using a Vibrant™ apoptosis kit (Molecular Probes). […] For annexin V-propidium iodide (PI) staining, cells were harvested, washed once with PBS and resuspended in 100 μl annexin binding buffer. 5 μl annexin V conjugated to Alexa Fluor 488 and 2 μl of 100 μg/ml PI were added to the cell suspension and incubated at room temperature for 15 minutes. The cells were then washed once in annexin binding buffer and resuspended in 400 μl annexin binding buffer. These samples were then analyzed by flow cytometry using Coulter benchtop flow cytometer. The cells were excited by a 488 nm wavelength laser beam and the emission was measured using a 530 nm filter for annexin V and a 575 nm filter for PI.

[6] = test system: NIH 373 cell line; test: Proliferation test; assay type: cell-based; details: data not shown

Row | SMILES | proliferation / viability [1] | colony forming potential (colonies >50 cells after 14 days) [2] | cell viability [3] | caspase activation (fluorescence intensity) [4] | cells in early stages of apoptosis (Annexin-V binding, exclusion of PI) [5] [%] | cells in later stages of apoptosis (positive for Annexin-V and PI) [5] [%] | proliferation [6]
1 | CC[C@H](C)[C@H](NC(=O)[C@H](CCCCN)NC(=O)[C@@H](NC(=O)[C@H](Cc1c[nH]c2ccccc12)NC(=O)[C@H](CC(C)C)NC(=O)[C@H](CCCCN)NC(=O)[C@H](CCCCN)NC(=O)[C@H](Cc1c[nH]c2ccccc12)NC(=O)[C@H](CCCCN)NC(=O)[C@H](CCSC)NC(=O)[C@H](CCCNC(=N)N)NC(=O)[C@H](CCCNC(=N)N)NC(=O)[C@H](CC(N)=O)NC(=O)[C@H](CCC(N)=O)NC(=O)[C@H](Cc1ccccc1)NC(=O)[C@H](Cc1c[nH]c2ccccc12)NC(=O)[C@H](CCCCN)NC(=O)[C@@H](NC(=O)[C@H](CCC(N)=O)NC(=O)[C@@H](N)CCCNC(=N)N)[C@@H](C)CC)C(C)C)C(=O)N[C@@H](CC(=O)O)C(=O)N[C@@H](CC(C)C)C(=O)N[C@@H](CC(=O)O)C(=O)N[C@@H](CC(C)C)C(=O)N[C@@H](CC(C)C)C(=O)N[C@@H](CO)C(=O)N[C@@H](CCCNC(=N)N)C(=O)N[C@H](C(=O)N1CCC[C@H]1C(=O)O)C(C)C [PFWT] | completely inhibits proliferation | neither PFWT nor PFmut have any significant effect; also recorded: does not impair their colony forming potential | diminished; also recorded: inhibits | caspases are activated | 45 | 35 | not affect the proliferation
2 | CC[C@H](C)[C@H](NC(=O)[C@H](CCC(N)=O)NC(=O)[C@@H](N)CCCNC(=N)N)C(=O)N[C@@H](CCCCN)C(=O)N[C@@H](Cc1c[nH]c2ccccc12)C(=O)N[C@@H](Cc1ccccc1)C(=O)N[C@@H](CCC(N)=O)C(=O)N[C@@H](CC(N)=O)C(=O)N[C@@H](CCCNC(=N)N)C(=O)N[C@@H](CCCNC(=N)N)C(=O)N[C@@H](CCSC)C(=O)N[C@@H](CCCCN)C(=O)N[C@@H](Cc1c[nH]c2ccccc12)C(=O)N[C@@H](CCCCN)C(=O)N[C@@H](CCCCN)C(=O)N[C@@H](CC(C)C)C(=O)N[C@@H](Cc1c[nH]c2ccccc12)C(=O)N[C@@H](CCC(=O)O)C(=O)N[C@@H](CCCCN)C(=O)N[C@@H](CO)C(=O)N[C@@H](CC(=O)O)C(=O)N[C@@H](CC(C)C)C(=O)N[C@@H](CC(=O)O)C(=O)N[C@@H](CC(C)C)C(=O)N[C@@H](CC(C)C)C(=O)N[C@@H](CO)C(=O)N[C@@H](CCCNC(=N)N)C(=O)N[C@H](C(=O)N1CCC[C@H]1C(=O)O)C(C)C [PFmut] |  | neither PFWT nor PFmut have any significant effect | much less sensitive | little caspase activation can be detected |  |  | 
